Literature values, collected in US20240052003A1, “COMPOSITIONS COMPRISING PEDF-DERIVED SHORT PEPTIDES (PDSP) AND USES THEREOF” (BRIM Biotechnology, Inc., priority 2019, published 2024).

Test system: eye
Settings: ocular application

NC(=O)c1cccnc1 [nicotinamide]
Eye irritation: may cause eye irritation
